Data from patent US20080248134A1, “Oral compositions, use and combinations of N-[2-(dimethylamino)ethyl]-2,6 dimethyl-1-oxo-1,2-dihydrobenzo[b]-1,6-naphthyridine-4-carboxamide and closely related analogues thereof” (Auckland Uniservices Limited, priority 2005, published 2008).
Read-outs that look alike come from different tables or passages of the source.

Columns and labels:
[1] = system: p53, p21 and Fas in HCT116 (TP53 wild type); assay: Induction of the p53 pathway, western blotting; format: cell-based, human
From the text: The p53 protein is thought to play a major role in the induction of apoptosis in tumour cells (Levine A J. p53, the cellular gatekeeper for growth and division. Cell. 1997. 88(3):323-331). The p53 protein is a transcriptional activator, which acts in response to DNA damage and other stress pathways, and increases expression of proteins such as Fas and p21^WAF1. […] Products were detected by western blotting.

[2] = Plasma pharmacokinetics; format: in vivo, mice; conditions: for AUC: read-out: area under the plasma concentration-time profile for the first 8 hours (AUC)
Experimental: The plasma pharmacokinetics of the compound of Formula II, were compared following intravenous, intraperitoneal and oral administration at a dose of 8.9 mg/kg (26 μmol/kg). Mice were terminally anaesthetised at various times up to 8 hours after drug administration and blood was taken for preparation of plasma samples. Plasma concentrations of the compound of Formula II were measured by high performance liquid chromatography-mass spectrophometry. The results are shown in FIG. 6, the vertical bars showing the standard deviation of the mean values from three mice per time point.
As expected from the rate of gastric emptying, the initial increase in plasma and liver drug concentrations occur later after oral administration than they do after intravenous or intraperitoneal administration, but the plasma and tissue half-lives are similar.

[3] = Plasma and tissue pharmacokinetics; format: in vivo, mice
Experimental: Plasma and tissue pharmacokinetics of the compound of Formula II, were compared following intraperitoneal administration at a dose of 8.9 mg/kg body weight. Mice were terminally anaesthetised at various times up to 75 hours after drug administration and tissue and blood was taken for preparation of samples. Plasma and tissue concentrations of the compound of Formula II were measured by high performance liquid chromatography-mass spectrophometry. The results are shown in FIG. 8, the vertical bars showing the standard deviation of the mean values from three mice per time point. The concentration of drug in plasma is very low on this scale (<100 nmol/kg), implying a high ratio of the concentration of cell-associated drug to that of external drug
Plasma and tissue pharmacokinetics, were further investigated following intraperitoneal administration of the compound of Formula II at a dose of 8.9 mg/kg. Mice were terminally anaesthetised at various times up to 75 hours after drug administration and tissue and blood was taken for preparation of samples. Plasma and tissue concentrations of the compound of Formula II were measured by high performance liquid chromatography-mass spectrophometry. The results are shown in FIG. 9, the vertical bars showing the standard deviation of the mean values from three mice per time point. The concentration differential (ie the slope of each plot) indicates the half life of the compound of Formula II in each tissue type and plasma. The half life of the compound of Formula II in various tissue types including liver, kidney, brain, heart and plasma, calculated from points on the concentration time curve, is approximately three hours. The half life of the compound of Formula II in tumour tissue, calculated from points on the concentration time curve, is approximately 9 hours. This is approximately a three-fold increase in the concentration differential in tumour tissue to non-tumour tissue and plasma concentration of Formula II. This effectively leads to an accumulation of the compound of Formula II in tumour tissue relative to other tissue.
The plasma and tissue pharmacokinetics of a compound of Formula II, were also compared with several well known cancer therapies as shown in FIG. 10. The analytical methods used to obtain data for other therapies varies and was taken from the literature. The AUC (area under the concentration-time curve) values of the compound of Formula II show approximately a 6-7 fold increase in concentration of Formula II in tumour tissue over liver tissue. The AUC values in plasma are negligible. A longer half life (higher concentration differential) in a particular tissue, leads to a larger AUC value (area under the concentration versus time curve). The AUC values provide an indication of the amount of each compound accumulated in a particular tissue or plasma over time.
The ability of different anticancer drugs to be retained selectively in tumour tissue can also be conveniently compared as the ratio of AUC values for a normal tissue versus a tumour tissue. […] Cancer Chemother Pharmacol. 1996; 38: 417-24), amsacrine and asulacrine (Kestell P, Paxton J W, Evans P C, Young D, Jurlina J L, Robertson I G C, Baguley B C. Disposition of amsacrine and its analogue 9-((2-methoxy-4-[(methylsulfonyl)-amino]phenyl)amino)-N,5-dimethyl-4-acridinecarboxamide (CI-921) in plasma, liver, and Lewis lung tumors in mice. Cancer Res 1990; 50: 503-508) and DACA (Kestell P, Dunlop I, McCrystal M R, Evans B D, Paxton J W, Gamage R S K A, Baguley B C. Plasma pharmacokinetics of DACA (N-[2-(dimethylamino)-ethyl]-acridine-4-carboxamide) in a phase I trial. Cancer Chemother Pharmacol 1999; 44: 45-50). Similar analytical methods, employing high performance liquid chromatography, were used. […]

[4] = system: HCT116 human colon carcinoma line, TP53 mutant; assay: In vitro cell survival, clonogenic assay; format: cell-based; conditions: p53 mutant HCT116, 6 hours exposure
Experimental: (§1) Two HCT116 human colon carcinoma lines, one with TP53 wild type status and one with TP53 mutant status, were exposed to the compound of Formula II for 6 hours. The cells were washed free of drug and surviving cells were measured by clonogenic assay. The concentration for maximal reduction of cell survival was 1% for p53 wild-type cells and 5% for p53 mutant cells. The cytotoxicity of the compound of the present invention was also tested in three Jurkat leukaemia lines, two of which, JLA and JLD, are resistant to topoisomerase inhibitors because of low cellular levels of topoisomerase II.

[5] = system: HCT116 human colon carcinoma line, TP53 wild type; assay: In vitro cell survival, clonogenic assay; format: cell-based; conditions: p53 wild-type HCT116, 6 hours exposure
Experimental: as §1

[6] = system: AuxB1; assay: In vitro susceptibility to multidrug resistance, continuous exposure IC50; format: cell-based, Chinese Hamster; conditions: Cricetulus griseus, AuxB1 (no multidrug resistance)
Experimental: (§2) Multidrug resistance mediated by p-glycoprotein and related transport proteins is an important means by which cancer cells evade cytotoxic drugs. […] IC50 values of several drugs were measured in continuous exposure assays in these two cell lines. The resistance factor was calculated as the ratio of these values. High values indicate high susceptibility to resistance.

[7] = system: CHrC5; assay: as above; format: cell-based, Chinese Hamster
Experimental: as §2

[8] = intraperitoneal administration, 8.9 mg/kg, mice
[9] = intravenous administration, 8.9 mg/kg, mice
[10] = intraperitoneal 8.9 mg/kg, mice

In the case of Cc1cccc2cc3c(=O)n(C)cc(C(=O)NCCN(C)C)c3nc12 [Formula II, N-[2-(dimethylamino)ethyl]-2,6 dimethyl-1-oxo-1,2-dihydrobenzo[b]-1,6-naphthyridine-4-carboxamide], the “induction of p53, p21 and Fas” value ([1]; 24 hours at higher cell density (approaching confluence)) is reported as “induced these proteins”, the “induction of p53, p21 and Fas” value ([1]; 24 hours exposure) is reported as “much greater response” and the “induction of p53, p21 and Fas” value ([1]; earlier times (4-10 hours)) is reported as “induced these proteins”. For the same compound, the “time-concentration profiles (plasma and liver) for the different routes of administration” value ([2]; i.p., i.v. and p.o., non tumour bearing mice) was “quite comparable”, the maximum plasma concentration [2, 8] was 0.57 µM and the “time at which maximum plasma concentration achieved” value [2, 8] was 0.5 h. For the same compound, the maximum plasma concentration [2, 9] was 1.24 µM, the “time at which maximum plasma concentration achieved” value [2, 9] was 0.08 h and the AUC ([2]; mouse, plasma, ip, intraperitoneal administration, 8.9 mg/kg, mice) was 1.63 µM·h. The bioavailability ([2]; mouse, plasma, oral, relative to intraperitoneal administration, 8.9 mg/kg, mice, read-out: bioavailability following oral administration) was 63%, the half-life ([2]; mouse, plasma, all three routes of administration (i.v., i.p., oral), 8.9 mg/kg, mice, read-out: terminal plasma half life (converted)) was ~3.5 h and the AUC ([2]; mouse, plasma, intravenous administration, 8.9 mg/kg, mice) was 1.99 µM·h. For the same compound, the AUC ([2]; mouse, plasma, oral administration, 8.9 mg/kg, mice) was 1.03 µM·h, the maximum plasma concentration ([2]; oral administration, 8.9 mg/kg (26 μmol/kg), mice) was 0.27 µM and the “time at which maximum plasma concentration achieved” value ([2]; oral administration, 8.9 mg/kg, mice) was 2 h. For the same compound, the “ratio of AUC values (tumour/liver)” value ([3]; compared with doxorubicin, amsacrine, asulacrine and DACA) was “clearly superior”, the “half life in liver, kidney, brain, heart and plasma” value [3, 10] was “approximately three” and the “increase in the concentration differential in tumour tissue to non-tumour tissue and plasma” value [3, 10] was “approximately three”. For the same compound, the “concentration of drug in plasma” value ([3]; intraperitoneal 8.9 mg/kg, mice, up to 75 hours) was < 100 nmol/kg, the “AUC: increase in concentration in tumour tissue over liver tissue” value ([3]; mice) was 6-7 fold and the half-life ([3]; mouse, ip, colon 38 tumour tissue, intraperitoneal 8.9 mg/kg, mice) was ~9 h. For the same compound, the “AUC values in plasma” value ([3]; relative to tissue AUC, mice) was “negligible”, the “maximal reduction of cell survival” value [4] was 5% and the “maximal reduction of cell survival” value [5] was 1%. The IC50 [6] was 3.5 nM, the IC50 ([7]; Cricetulus griseus, CHrC5 (multidrug resistant), continuous exposure) was 5.2 nM and the Resistance factor ([7]; ratio of IC50 values in CHrC5 and AuxB1) was 1.5.
